# From publication PMC6277767, “Broad and Region-Specific Impacts of the Synthetic Cannabinoid CP 55,940 in Adolescent and Adult Female Mouse Brains” (Frontiers in Molecular Neuroscience, 2018)
# Tested on: CD1 female mouse brain lipidome
# Experiment: Brain-region lipid levels (HPLC/MS/MS lipidomics) 2 h after single i.p. 3 mg/kg CP 55,940 vs vehicle
# Type: in vivo
# Set-up: N-arachidonoyl phenylalanine level, Mean / N-stearoyl tryptophan level, Mean / N-stearoyl proline level, Mean / N-stearoyl leucine level, Mean / N-stearoyl phenylalanine level, Mean / N-stearoyl serine level, Mean / N-stearoyl methionine level, Mean: unit: moles per gram
# Method: The Bloomington Institutional Animal Care and Use Committee of Indiana University reviewed and approved the animal procedures. Female mice from the CD1 strain were utilized to match our study examining THC’s effects on the brain lipidome ([Leishman et al., 2018]). Mice were given a single i.p. injection of either 3 mg/kg CP or 1:1:18 cremophor:ethanol:saline vehicle (please refer to the section “3 mg/kg CP Is Relevant for Synthetic Cannabinoid Abuse and Has Stronger Effects on the Female Mouse Brain Lipidome During Adolescence” for a justification of dose and use of female mice). Three different age groups were given injections: PND 35 and PND 50 adolescents, and adult mice (PND 113). At least eight mice in each age group received CP and at least eight received vehicle. Matching the THC study time course ([Leishman et al., 2018]), mice were sacrificed via rapid decapitation 2 h after injection. Brains were immediately removed and flash-frozen in liquid nitrogen, and then stored at -80°C until dissections were performed. Brains were dissected on an ice-cold dissection plate into the following regions: STR, HIPP, CER, THAL, CTX, HYP, MID, and STEM. These abbreviations for these brain areas will be used exclusively when discussing the results generated by these specific dissections. Each dissected area was immediately placed in liquid nitrogen and then stored at -80°C until used for lipid extraction.
# Tissue extracts were performed as previously described ([Bradshaw et al., 2006]; [Stuart et al., 2013]; [Raboune et al., 2014]; [Leishman et al., 2016a],[b], [2017], [2018]). First, samples were shock frozen in liquid nitrogen, weighed, and transferred to a centrifuge tube. The mass of the largest sample was multiplied by 50 to determine how many milliliters of HPLC-grade methanol (Fisher, Fair Lawn, NJ, United States) to add. Then, samples were spiked with 500 pmol deuterium-labeled NAGly (d8NAGly; Cayman Chemical, Ann Arbor, MI, United States). Samples were placed on ice in darkness for 2 h then individually homogenized and centrifuged at 19,000 × g for 20 min at 20°C. Supernatants were diluted with HPLC water (purified in house) to make a solution of 75% water, 25% supernatant. Lipids were partially purified on C18 solid phase extraction columns (Agilent, Palo Alto, CA, United States). A series of four elutions with 1.5 mL of 60%, 75%, 85%, and 100% methanol were collected ([Stuart et al., 2013]; [Leishman et al., 2016a],[b], [2018]).
# As previously described ([Bradshaw et al., 2006]; [Tan et al., 2006]; [Smoum et al., 2010]; [Stuart et al., 2013]; [Tortoriello et al., 2013]; [Raboune et al., 2014]; [Leishman et al., 2016a],[b], [2017], [2018]), samples were analyzed using an Applied Biosystems API 3000 triple quadrupole mass spectrometer with electrospray ionization (Foster City, CA, United States). Using an Agilent XDB-C18 reversed phase analytical column and optimized mobile phase gradients, 20 μL from each elution were chromatographed. Two Shimadzu 10ADvp pumps (Columbia, MD, United States) provided the pressure for gradient elution. Mobile phase A: 20% methanol, 80% water (v/v) and 1 mM ammonium acetate (Sigma, St. Louis, MO, United States). Mobile phase B: 100% methanol, 1 mM ammonium acetate. Every method run began with 0% mobile phase B, reached 100% mobile phase B flowing at 0.2 mL/min, and gradually returned to 0% mobile phase B.
# This screening library will be referred to as the lipidome when discussing data from this study. HPLC/MS/MS data were analyzed using Analyst software (Applied Biosystems) ([Bradshaw et al., 2006]; [Tan et al., 2006]; [Stuart et al., 2013]; [Tortoriello et al., 2013]; [Raboune et al., 2014]; [Leishman et al., 2016a],[b], [2017], [2018]). Chromatograms (Supplementary Figure 3) were generated by determining the retention time of analytes from the analytical column with a [M-1] or [M+1] parent peak and a fragmentation peak corresponding to the programmed values. […]
# [1] = adult hypothalamus, 3mg/kg CP 55,940, p .001
# [2] = adult hypothalamus, 3mg/kg CP 55,940, p .002
# [3] = adult hypothalamus, 3mg/kg CP 55,940, p .005
# [4] = adult hypothalamus, 3mg/kg CP 55,940, p .020
# [5] = adult hypothalamus, 3mg/kg CP 55,940, p .036
# [6] = adult hypothalamus, 3mg/kg CP 55,940, p .060
# [7] = adult hypothalamus, 3mg/kg CP 55,940, p .073
# [8] = adult midbrain, 3mg/kg CP 55,940
# [9] = adult midbrain, 3mg/kg CP 55,940, p .000
# [10] = adult midbrain, 3mg/kg CP 55,940, p .003
# [11] = adult midbrain, 3mg/kg CP 55,940, p .023
smiles,measurement,setting,value
"CCCCCCC(C)(C)c1ccc([C@@H]2C[C@H](O)CC[C@H]2CCCO)c(O)c1 [CP 55,940]","THC level, Mean","adult hypothalamus, 3 mg/kg CP 55,940",BDL
same,PGF2α Direction (relative to Veh),[1],↓
same,PGF2α Magnitude (x Veh level),[1],0.79
same,phosphoLEA Direction (relative to Veh),[2],↓
same,phosphoLEA Magnitude (x Veh level),[2],0.74
same,6-ketoPGF1α Direction (relative to Veh),[3],↓
same,6-ketoPGF1α Magnitude (x Veh level),[3],0.61
same,N-palmitoyl phenylalanine Direction (relative to Veh),[4],↑
same,N-palmitoyl phenylalanine Magnitude (x Veh level),[4],1.86
same,PGE2 Direction (relative to Veh),[5],↑
same,PGE2 Magnitude (x Veh level),[5],1.18
same,N-arachidonoyl taurine Direction (relative to Veh),[6],↑
same,N-arachidonoyl taurine Magnitude (x Veh level),[6],1.24
same,N-arachidonoyl GABA Direction (relative to Veh),[7],↓
same,N-arachidonoyl GABA Magnitude (x Veh level),[7],0.83
same,"2-arachidonoyl glycerol level, Mean",[8],3.47E-09
same,"2-linoleoyl glycerol level, Mean",[8],3.28E-10
same,"2-oleoyl glycerol level, Mean",[8],4.34E-09
same,"2-palmitoyl glycerol level, Mean",[8],8.64E-11
same,"6-ketoPGF1α level, Mean",[8],3.28E-11
same,"11-OH-THC level, Mean",[8],BDL
same,"11-nor-9-carboxyTHC level, Mean",[8],BDL
same,"Arachidonic acid level, Mean",[8],5.39E-10
same,"Cannabidiol level, Mean",[8],BDL
same,"Linoleic acid level, Mean",[8],2.55E-10
same,"N- stearoyl valine level, Mean",[8],3.08E-14
same,"N-arachidonoyl GABA level, Mean",[8],2.05E-11
same,"N-arachidonoyl alanine level, Mean",[8],8.5E-13
same,"N-arachidonoyl dopamine level, Mean",[8],BDL
same,"N-arachidonoyl ethanolamine level, Mean",[8],1.42E-11
same,"N-arachidonoyl glycine level, Mean",[8],7.94E-13
same,"N-arachidonoyl phenylalanine level, Mean",[8],2.39E-13
same,"N-arachidonoyl proline level, Mean",[8],BDL
same,"N-arachidonoyl serine level, Mean",[8],4.34E-13
same,"N-arachidonoyl taurine level, Mean",[8],5.5E-11
same,"N-arachidonoyl tryptophan level, Mean",[8],BDL
same,"N-arachidonoyl tyrosine level, Mean",[8],1.09E-12
same,"N-docosahexaenoyl GABA level, Mean",[8],8.66E-12
same,"N-docosahexaenoyl ethanolamine level, Mean",[8],3.34E-11
same,"N-docosahexaenoyl glycine level, Mean",[8],1.02E-13
same,"N-docosahexaenoyl methionine level, Mean",[8],BDL
same,"N-docosahexaenoyl phenylalanine level, Mean",[8],1.11E-13
same,"N-docosahexaenoyl proline level, Mean",[8],BDL
same,"N-docosahexaenoyl tryptophan level, Mean",[8],BDL
same,"N-linoleoyl alanine level, Mean",[8],4.8E-13
same,"N-linoleoyl ethanolamine level, Mean",[8],1.5E-11
same,"N-linoleoyl glycine level, Mean",[8],4.47E-14
same,"N-linoleoyl methionine level, Mean",[8],BDL
same,"N-linoleoyl proline level, Mean",[8],BDL
same,"N-linoleoyl serine level, Mean",[8],2.09E-11
same,"N-linoleoyl tryptophan level, Mean",[8],BDL
same,"N-linoleoyl tyrosine level, Mean",[8],BDL
same,"N-nervonoyl valine level, Mean",[8],BDL
same,"N-oleoyl GABA level, Mean",[8],1.69E-11
same,"N-oleoyl alanine level, Mean",[8],2.56E-12
same,"N-oleoyl dopamine level, Mean",[8],BDL
same,"N-oleoyl ethanolamine level, Mean",[8],3.41E-10
same,"N-oleoyl glycine level, Mean",[8],4.95E-13
same,"N-oleoyl leucine level, Mean",[8],1.1E-12
same,"N-oleoyl phenylalanine level, Mean",[8],1.49E-12
same,"N-oleoyl proline level, Mean",[8],BDL
same,"N-oleoyl serine level, Mean",[8],1.28E-10
same,"N-oleoyl tryptophan level, Mean",[8],BDL
same,"N-oleoyl tyrosine level, Mean",[8],7.3E-13
same,"N-oleoyl valine level, Mean",[8],2.38E-14
same,"N-palmitoyl GABA level, Mean",[8],2.91E-11
same,"N-palmitoyl alanine level, Mean",[8],1.61E-12
same,"N-palmitoyl ethanolamine level, Mean",[8],6.9E-11
same,"N-palmitoyl glycine level, Mean",[8],1.85E-12
same,"N-palmitoyl leucine level, Mean",[8],2.19E-12
same,"N-palmitoyl methionine level, Mean",[8],2.91E-12
same,"N-palmitoyl phenylalanine level, Mean",[8],1.17E-12
same,"N-palmitoyl proline level, Mean",[8],BDL
same,"N-palmitoyl tryptophan level, Mean",[8],BDL
same,"N-palmitoyl tyrosine level, Mean",[8],1.01E-12
same,"N-palmitoyl valine level, Mean",[8],1.76E-13
same,"N-stearoyl GABA level, Mean",[8],1.9E-11
same,"N-stearoyl alanine level, Mean",[8],2.08E-12
same,"N-stearoyl ethanolamine level, Mean",[8],1.35E-11
same,"N-stearoyl glycine level, Mean",[8],2.96E-12
same,"N-stearoyl leucine level, Mean",[8],1.09E-12
same,"N-stearoyl methionine level, Mean",[8],4.14E-13
same,"N-stearoyl phenylalanine level, Mean",[8],7.89E-13
same,"N-stearoyl proline level, Mean",[8],BDL
same,"N-stearoyl serine level, Mean",[8],1.92E-11
same,"N-stearoyl tryptophan level, Mean",[8],BDL
same,"Oleic acid level, Mean",[8],4.73E-10
same,"PGE2 level, Mean",[8],2.39E-10
same,"PhosphoLEA level, Mean",[8],2.38E-11
same,"THC level, Mean",[8],BDL
same,"2-arachidonoyl glycerol, Direction (relative to Veh)",[9],↓
same,"2-arachidonoyl glycerol, Magnitude (x Veh level)",[9],0.80
same,"2-oleoyl glycerol, Direction (relative to Veh)",[9],↓
same,"2-oleoyl glycerol, Magnitude (x Veh level)",[9],0.74
same,"Arachidonic acid, Direction (relative to Veh)",[9],↓
same,"Arachidonic acid, Magnitude (x Veh level)",[9],0.78
same,2-linoleoyl glycerol Direction (relative to Veh),[10],↓
same,2-linoleoyl glycerol Magnitude (x Veh level),[10],0.77
same,phosphoLEA Direction (relative to Veh),[10],↓
same,phosphoLEA Magnitude (x Veh level),[10],0.70
same,"N-palmitoyl ethanolamine, Direction (relative to Veh)",[11],↓
same,"N-palmitoyl ethanolamine, Magnitude (x Veh level)",[11],0.82
